Experimental data as given in patent US4229452A, “Treatment of inflammatory disorders with 4-trifluoromethylimidazo[1,2-a]quinoxaline” (Westwood Pharmaceuticals, Inc., priority 1979, dated 1980).

Key:
[1] = test system: carrageenin-induced paw edema; assay: carrageenin-induced paw edema test in the rat; type: in vivo, rat (Male Charles River); conditions: for inhibition in vivo at 16 mg/kg: 16 mg/kg po; for inhibition in vivo at 32 mg/kg: 32 mg/kg po; for inhibition in vivo at 64 mg/kg: 64 mg/kg po; for inhibition in vivo at 128 mg/kg: 128 mg/kg po; for ED30: calculated from the dose-response line; for inhibition in vivo at 8 mg/kg: 8 mg/kg po; for reduction of carrageenin-induced edema / anti-edema activity: result in words
Method: Compounds of the present invention were screened in the carrageenin-inducedpaw edema test in the rat. Acetylsalicylic acid was included in the study for reference comparison.
The method employed was the carrageenin edema test [Winter, C. A., Risley, E. A. and Nuss, G. W., Proc. Soc. exp. Biol. Med. 111:544(1962) and Halperin, B. N. and Briot, M., Arch Int. Pharmacody N. 82:247(1950)].
(§1) Male Charles River Rats weighing 145 to 180 g. were employed in the study. Food was withheld for 18 hours before the start of the test, while water was withheld only during the test. Experimental drugs with the desired dose in 3 ml. distilled water (Tween 80)/100 g. body weight were administered orally as suspensions by stomach tube. Control animals, those not receiving drugs, were given the same volume of vehicle by the same route of administration. To induce inflammation, the rear paw was injected into the plantar surface with 0.1 ml. of a 1% carrageenin solution in 0.9% saline. The right paw was also injected with 0.1 ml. of a 0.9% saline solution. At the time of sacrifice, the animals were killed by chloroform. The hind paws were rapidly amputated at tarsocrural joint and weighed on an analytical balance. In all cases the drugs were administered one hour before the paw injections and the sacrifice was performed three hours after the carrageenin injection. The difference in weight (g/100 b.w.) between the carrageenin and the saline injected paws was recorded as the degree of edema.
A comparison of the effectiveness of the test compounds and the standard reference agent, acetylsalicylic acid, in inhibiting edema resulting from the injection of carrageenin is recorded in the following Table XI.
It should be noted that ED30 refers to that dose which inhibits carrageenin-induced paw edema in 30% of the animals in the test group.

[2] = side-effects noted in the carrageenin-induced paw edema test; type: in vivo; conditions: rat; for Side-Effects Noted: rats died: 128 mg/kg po
Method: as §1

| Structure (SMILES) | inhibition in vivo at 64 mg/kg [1] | inhibition in vivo at 128 mg/kg [1] | ED30 ([1]; po) | Side-Effects Noted ([2]; po) | further results |
| --- | --- | --- | --- | --- | --- |
| CC(C)Cc1nc2ccccc2n2ccnc12 | 23% | 36% | ~70 mg/kg |  | inhibition in vivo at 16 mg/kg [1]: 0%; inhibition in vivo at 32 mg/kg [1]: 25% |
| C(=Cc1nc2ccccc2n2ccnc12)c1ccccc1 |  | 0% | > 128 mg/kg | NONE |  |
| c1ccc2c(c1)nc(C1CCC1)c1nccn12 | 0% | 64% | ~100 mg/kg | Ptosis at 128 mg/kg |  |
| c1ccc2c(c1)nc(C1CCCCC1)c1nccn12 | 0% | 60% | ~100 mg/kg | NONE |  |
| c1ccc(Cc2nc3ccccc3n3ccnc23)cc1 | 0% | 0% | > 128 mg/kg | NONE |  |
| c1ccc(OCc2nc3ccccc3n3ccnc23)cc1 |  | 0% | > 128 mg/kg | NONE |  |
| CC(=O)Oc1ccccc1C(=O)O [ASPIRIN, acetylsalicylic acid, reference compound] | 32.5% | 41% | 59.5 mg/kg | NONE | inhibition in vivo at 32 mg/kg [1]: 19%; inhibition in vivo at 256 mg/kg ([1]; 256 mg/kg po): 62% |
| c1ccc2c(c1)ncc1nccn12 [Compound 109, imidazo[1,2-a]quinoxaline] | 6% | 54% | ~100 mg/kg |  | Side-Effects Noted: rats died [2]: 1/6 |
| Cc1nc2ccccc2n2ccnc12 [Compound 110] | 29% | 42% | 40 mg/kg |  | inhibition in vivo at 8 mg/kg [1]: 12%; inhibition in vivo at 16 mg/kg [1]: 28%; inhibition in vivo at 32 mg/kg [1]: 33%; reduction of carrageenin-induced edema / anti-edema activity ([1]; po): significant reductions of carrageenin-induced edema without attendant side effects; Side-Effects Noted: rats died [2]: 1/6 |
| CCc1nc2ccccc2n2ccnc12 [Compound 111] | 41% | 57% | 20.5 mg/kg |  | inhibition in vivo at 4 mg/kg ([1]; 4 mg/kg po): 6%; inhibition in vivo at 8 mg/kg [1]: 23%; inhibition in vivo at 16 mg/kg [1]: 32%; inhibition in vivo at 32 mg/kg [1]: 40%; anti-edemic activity relative to acetylsalicylic acid ([1]; po): approximately 3 X acetylsalicylic acid; reduction of carrageenin-induced edema / anti-edema activity ([1]; po, listed as CH2 CH3): significant reductions of carrageenin-induced edema without attendant side effects; reduction of carrageenin-induced edema / anti-edema activity ([1]; po, listed as ethyl analog): strongest anti-edemic activity; selectivity ratio ([2]; in vivo, po, read-out: dose associated with side effects, as multiple of ED30): ~3 |
| CCCc1nc2ccccc2n2ccnc12 [Compound 112] | 0% | 36% | ~128 mg/kg |  |  |
| CCCCCc1nc2ccccc2n2ccnc12 [Compound 114] | 5% | 23% | > 128 mg/kg | NONE |  |
| CCCCCCc1nc2ccccc2n2ccnc12 [Compound 115] | 0% | 27% | ~128 mg/kg | NONE |  |
| CCCCCCCc1nc2ccccc2n2ccnc12 [Compound 116] |  | 0% | > 128 mg/kg | NONE |  |
| CCCCCCCCc1nc2ccccc2n2ccnc12 [Compound 117] |  | 0% | > 128 mg/kg | NONE |  |
| CCCCCCCCCc1nc2ccccc2n2ccnc12 [Compound 118] |  | 0% | > 128 mg/kg | NONE |  |
| CCCCCCCCCCCCCCCc1nc2ccccc2n2ccnc12 [Compound 119] |  | 9% | > 128 mg/kg | NONE |  |
| CCCCCCCCCCCCCCCCCc1nc2ccccc2n2ccnc12 [Compound 120] | 0% | 5% | > 128 mg/kg | NONE |  |
| FC(F)(F)c1nc2ccccc2n2ccnc12 [Compound 122, 4-trifluoromethylimidazo[1,2-a]quinoxaline] | 39% | 44% | 35.1 mg/kg |  | inhibition in vivo at 8 mg/kg [1]: 8%; inhibition in vivo at 16 mg/kg [1]: 29%; inhibition in vivo at 32 mg/kg [1]: 31%; anti-inflammatory activity relative to the ethyl analog ([1]; po): about half; reduction of carrageenin-induced edema / anti-edema activity ([1]; po): significant reductions of carrageenin-induced edema without attendant side effects; dose associated with side effects, as multiple of ED30 ([2]; po): does not show side effects at several multiples of its ED30; Side-Effects Noted ([2]; po, listed as CF3): NONE and did not produce any obvious untoward side effects; Side-Effects Noted ([2]; po, listed as trifluoromethyl analog): did not produce any side effects even at a dose of 128 mg/kg; therapeutic index ([2]; po, result in words): very good therapeutic index; toxicity relative to the non-fluorinated analog ([2]; po, result in words): less toxic |
| COCc1nc2ccccc2n2ccnc12 [Compound 125] | 1% | 32% | ~128 mg/kg |  |  |
